In patent publication US20260347364A1, “PYRAZOLO[4,3-F]QUINAZOLINE DERIVATIVES AS MODULATORS OF G12D MUTANT KRAS USEFUL FOR THE TREATMENT OF CANCER” (JAZZ PHARMACEUTICALS IRELAND LTD., priority 2023, published 2026):

Columns and labels:
[1] = target: T1, KRAS G12D (Homo sapiens, UniProt P01116, G12D); test: HTRF nucleotide exchange assay, KRAS G12D; type: biochemical; conditions: HTRF nucleotide exchange assay (NEA), class symbols
T1 construct: aa1-188 KRAS WT, HRAS WT, NRAS WT, or KRAS containing the G12D
T1 sequence (P01116 1-188 isoform P01116-2 G12D): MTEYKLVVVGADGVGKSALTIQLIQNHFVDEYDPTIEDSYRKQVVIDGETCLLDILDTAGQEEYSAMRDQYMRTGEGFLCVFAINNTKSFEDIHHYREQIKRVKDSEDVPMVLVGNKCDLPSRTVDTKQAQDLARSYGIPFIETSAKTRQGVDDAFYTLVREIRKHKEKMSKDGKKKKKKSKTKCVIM

[2] = target: T2, KRAS WT (Homo sapiens, UniProt P01116); test: HTRF nucleotide exchange assay, KRAS WT; type: biochemical; conditions: class symbols; for IC50: HTRF nucleotide exchange assay (NEA)
T2 construct: aa1-188 KRAS WT
T2 sequence (P01116 1-188 isoform P01116-2): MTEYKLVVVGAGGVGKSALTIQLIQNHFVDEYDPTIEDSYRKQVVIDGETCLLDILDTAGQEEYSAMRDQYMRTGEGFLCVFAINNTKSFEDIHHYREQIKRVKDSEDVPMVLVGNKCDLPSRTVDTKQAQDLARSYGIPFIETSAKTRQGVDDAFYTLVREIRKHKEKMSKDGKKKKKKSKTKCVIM

IC50 [1]	IC50 [2]	KRAS^WT NEA [2]	SMILES
≤ 10 nM	≤ 10 nM	–	CCc1c(F)ccc2cc(O)cc(-c3cc4nc(OC[C@@]56CCCN5C[C@H](F)C6)nc(N5CCC(CO)C5)c4c4cn(C)nc34)c12 (stereo partly drawn) [Example 122, 5-ethyl-6-fluoro-4-[9-[3-(hydroxymethyl)pyrrolidin-1-yl]-2-methyl-7-[[(2R,8S)-2-fluoro-1,2,3,5,6,7-hexahydropyrrolizin-8-yl]methoxy]pyrazolo[4,3-f]quinazolin-4-yl]naphthalen-2-ol]
≤ 10 nM	10 to 100 nM	–	CCc1c(F)ccc2cc(O)cc(-c3cc4nc(OC[C@@]56CCCN5C[C@H](F)C6)nc(N5CCCC(CO)C5)c4c4cn(C)nc34)c12 (stereo partly drawn) [Example 114, 5-ethyl-6-fluoro-4-[9-[3-(hydroxymethyl)-1-piperidyl]-2-methyl-7-[[(2R,8S)-2-fluoro-1,2,3,5,6,7-hexahydropyrrolizin-8-yl]methoxy]pyrazolo[4,3-f]quinazolin-4-yl]naphthalen-2-ol]
10 to 100 nM	10 to 100 nM	–	CCc1c(F)ccc2cc(O)cc(-c3cc4nc(OC[C@@]56CCCN5C[C@H](F)C6)nc(N5CCCC(O)CC5)c4c4cn(C)nc34)c12 (stereo partly drawn) [Example 42, 1-[4-(8-ethyl-7-fluoro-3-hydroxy-1-naphthyl)-2-methyl-7-[[(2R,8S)-2-fluoro-1,2,3,5,6,7-hexahydropyrrolizin-8-yl]methoxy]pyrazolo[4,3-f]quinazolin-9-yl]azepan-4-ol]
≤ 10 nM	10 to 100 nM	–	CCc1c(F)ccc2cc(O)cc(-c3cc4nc(OC[C@@]56CCCN5C[C@H](F)C6)nc(N5CCCn6nc(C#N)cc6C5)c4c4cn(C)nc34)c12 [Example 73, 5-[4-(8-ethyl-7-fluoro-3-hydroxy-1-naphthyl)-7-[[(2R,8S)-2-fluoro-1,2,3,5,6,7-hexahydropyrrolizin-8-yl]methoxy]-2-methyl-pyrazolo[4,3-f]quinazolin-9-yl]-4,6,7,8-tetrahydropyrazolo[1,5-a][1,4]diazepine-2-carbonitrile]
100 to 10000 nM	–	D (<49% inhibition at 10 μM)	CCc1c(F)ccc2cc(O)cc(-c3cc4nc(OC[C@@]56CCCN5C[C@H](F)C6)nc(N5CCCC(O)(C(C)C)C5)c4c4cn(C)nc34)c12 (stereo partly drawn) [Example 134, 1-[4-(8-ethyl-7-fluoro-3-hydroxy-1-naphthyl)-2-methyl-7-[[(2R,8S)-2-fluoro-1,2,3,5,6,7-hexahydropyrrolizin-8-yl]methoxy]pyrazolo[4,3-f]quinazolin-9-yl]-3-isopropyl-piperidin-3-ol]
10 to 100 nM	100 to 10000 nM	–	CCc1c(F)ccc2cc(O)cc(-c3cc4nc(OC[C@@]56CCCN5C[C@H](F)C6)nc(N5CCNCC5)c4c4cn(C)nc34)c12 [Example 13, 5-ethyl-6-fluoro-4-[2-methyl-9-piperazin-1-yl-7-[[(2R,8S)-2-fluoro-1,2,3,5,6,7-hexahydropyrrolizin-8-yl]methoxy]pyrazolo[4,3-f]quinazolin-4-yl]naphthalen-2-ol]
≤ 10 nM	≤ 10 nM	–	CCc1c(F)ccc2cc(O)cc(-c3c(F)c4nc(OC[C@@]56CCCN5C[C@H](F)C6)nc(N5CCC(O)CC5)c4c4cn(C)nc34)c12 [Example 177, 1-[4-(8-ethyl-7-fluoro-3-hydroxy-1-naphthyl)-5-fluoro-2-methyl-7-[[(2R,8S)-2-fluoro-1,2,3,5,6,7-hexahydropyrrolizin-8-yl]methoxy]pyrazolo[4,3-f]quinazolin-9-yl]piperidin-4-ol]

The next lines start with the molecule.

SMILES	IC50 [1]	IC50 [2]	KRAS^WT NEA [2]
CCc1c(F)ccc2cc(O)cc(-c3c(F)c4nc(OCC5(C)C[C@@H](O)CN5C)nc(N5CCOCC(C)(O)C5)c4c4cn(C)nc34)c12 (mixture of isomers) [Example 153, 4-[4-(8-ethyl-7-fluoro-3-hydroxy-1-naphthyl)-5-fluoro-2-methyl-7-[[rac-(4R)-4-hydroxy-1,2-dimethyl-pyrrolidin-2-yl]methoxy]pyrazolo[4,3-f]quinazolin-9-yl]-6-methyl-1,4-oxazepan-6-ol]	≤ 10 nM	≤ 10 nM	–
CCc1c(F)ccc2cc(O)cc(-c3c(F)c4nc(OCCC5CN(C)CCO5)nc(N5CCOCC(C)(O)C5)c4c4cn(C)nc34)c12 (stereo not drawn) [Example 224, 4-[4-(8-ethyl-7-fluoro-3-hydroxy-1-naphthyl)-5-fluoro-2-methyl-7-[2-(4-methylmorpholin-2-yl)ethoxy]pyrazolo[4,3-f]quinazolin-9-yl]-6-methyl-1,4-oxazepan-6-ol]	≤ 10 nM	10 to 100 nM	–
C#Cc1c(F)ccc2cc(O)cc(-c3cc4nc(OC[C@@]56CCCN5C[C@H](F)C6)nc(N5CC6CNCC6C5)c4c4cn(C)nc34)c12 (stereo partly drawn) [Example 34, 4-[9-(2,3,3a,4,6,6a-hexahydro-1H-pyrrolo[3,4-c]pyrrol-5-yl)-2-methyl-7-[[(2R,8S)-2-fluoro-1,2,3,5,6,7-hexahydropyrrolizin-8-yl]methoxy]pyrazolo[4,3-f]quinazolin-4-yl]-5-ethynyl-6-fluoro-naphthalen-2-ol]	≤ 10 nM	100 to 10000 nM	–
CCc1c(F)ccc2cc(O)cc(-c3c(F)c4nc(OCC5(CN6CCOC(C(F)(F)F)C6)CC5)nc(N5CCOCC(C)(O)C5)c4c4cn(C)nc34)c12 (stereo not drawn) [Example 219, 4-[4-(8-ethyl-7-fluoro-3-hydroxy-1-naphthyl)-5-fluoro-2-methyl-7-[[1-[[2-(trifluoromethyl)morpholin-4-yl]methyl]cyclopropyl]methoxy]pyrazolo[4,3-f]quinazolin-9-yl]-6-methyl-1,4-oxazepan-6-ol]	100 to 10000 nM	100 to 10000 nM	–
CCc1c(F)ccc2cc(O)cc(-c3c(C)c4nc(OC[C@]5(C)CCCN5)nc(N5CCC[C@@](C)(O)C5)c4c4cn(C)nc34)c12 (mixture of isomers) [Example 211, (3R)-1-[4-(8-ethyl-7-fluoro-3-hydroxy-1-naphthyl)-2,5-dimethyl-7-[[rac-(2S)-2-methylpyrrolidin-2-yl]methoxy]pyrazolo[4,3-f]quinazolin-9-yl]-3-methyl-piperidin-3-ol]	≤ 10 nM	≤ 10 nM	–
CCc1c(F)ccc2cc(O)cc(-c3c(F)c4nc(OC[C@@]56CCCN5C[C@H](F)C6)nc(N5CCCn6nc(C(=O)N(C)C)cc6C5)c4c4cn(C)nc34)c12 [Example 87, 5-[4-(8-ethyl-7-fluoro-3-hydroxy-1-naphthyl)-5-fluoro-2-methyl-7-[[(2R,8S)-2-fluoro-1,2,3,5,6,7-hexahydropyrrolizin-8-yl]methoxy]pyrazolo[4,3-f]quinazolin-9-yl]-N,N-dimethyl-4,6,7,8-tetrahydropyrazolo[1,5-a][1,4]diazepine-2-carboxamide]	≤ 10 nM	≤ 10 nM	–
CCc1c(F)ccc2cccc(-c3cc4nc(OC[C@@]56CCCN5C[C@H](F)C6)nc(N5CCCn6nc(C(=O)N(C)C)cc6C5)c4c4cn(C)nc34)c12 [Example 63, 5-[4-(8-ethyl-7-fluoro-1-naphthyl)-2-methyl-7-[[(2R,8S)-2-fluoro-1,2,3,5,6,7-hexahydropyrrolizin-8-yl]methoxy]pyrazolo[4,3-f]quinazolin-9-yl]-N,N-dimethyl-4,6,7,8-tetrahydropyrazolo[1,5-a][1,4]diazepine-2-carboxamide]	≤ 10 nM	10 to 100 nM	–
CCc1c(F)ccc2cc(O)cc(-c3c(C)c4nc(OC[C@@H]5CCCN5C)nc(N5CCOCC(C)(O)C5)c4c4cn(C)nc34)c12 (stereo partly drawn) [Example 138, 4-[4-(8-ethyl-7-fluoro-3-hydroxy-1-naphthyl)-2,5-dimethyl-7-[[(2S)-1-methylpyrrolidin-2-yl]methoxy]pyrazolo[4,3-f]quinazolin-9-yl]-6-methyl-1,4-oxazepan-6-ol]	≤ 10 nM	≤ 10 nM	–
CCc1c(F)ccc2cc(O)cc(-c3c(F)c4nc(OCC56CCCN5CCC6)nc(N5CCC[C@@](C)(O)C5)c4c4cn(C)nc34)c12 [Example 203, (3R)-1-[4-(8-ethyl-7-fluoro-3-hydroxy-1-naphthyl)-5-fluoro-7-(1,2,3,5,6,7-hexahydropyrrolizin-8-ylmethoxy)-2-methyl-pyrazolo[4,3-f]quinazolin-9-yl]-3-methyl-piperidin-3-ol]	≤ 10 nM	≤ 10 nM	–
CCc1c(F)ccc2cc(O)cc(-c3c(F)c4nc(OCC5(CN6CCC(CC#N)CC6)CC5)nc(N5CCOCC(C)(O)C5)c4c4cn(C)nc34)c12 (stereo not drawn) [Example 225, 2-[1-[[1-[[4-(8-ethyl-7-fluoro-3-hydroxy-1-naphthyl)-5-fluoro-9-(6-hydroxy-6-methyl-1,4-oxazepan-4-yl)-2-methyl-pyrazolo[4,3-f]quinazolin-7-yl]oxymethyl]cyclopropyl]methyl]-4-piperidyl]acetonitrile]	≤ 10 nM	≤ 10 nM	–
CCc1c(F)ccc2cc(O)cc(-c3c(F)c4nc(OCC5(CN(CC)CC)CC5)nc(N5CCOCC(C)(O)C5)c4c4cn(C)nc34)c12 (stereo not drawn) [Example 166, -[7-[[1-(diethylaminomethyl)cyclopropyl]methoxy]-4-[8-ethyl-7-fluoro-3-(methoxymethoxy)-1-naphthyl]-5-fluoro-2-methyl-pyrazolo[4,3-f]quinazolin-9-yl]-6-methyl-1,4-oxazepan-6-ol]	≤ 10 nM	≤ 10 nM	–
Cn1cc2c(n1)c(-c1cc(O)cc3ccc(F)c(F)c13)cc1nc(OC[C@@]34CCCN3C[C@H](F)C4)nc(N3CCCOCC3)c12 [Example 39]	10 to 100 nM	10 to 100 nM	–
CCc1c(F)ccc2cc(O)cc(-c3c(F)c4nc(OCC5(CF)COC5)nc(N5CC6CCC(C5)N6)c4c4cn(C)nc34)c12 [Example 167, 4-[9-(3,8-diazabicyclo[3.2.1]octan-3-yl)-5-fluoro-7-[[3-(fluoromethyl)oxetan-3-yl]methoxy]-2-methyl-pyrazolo[4,3-f]quinazolin-4-yl]-5-ethyl-6-fluoro-naphthalen-2-ol]	≤ 10 nM	100 to 10000 nM	–
CCc1c(F)ccc2cc(O)cc(-c3c(F)c4nc(OCC5COCCN5C)nc(N5CCOCC(C)(O)C5)c4c4cn(C)nc34)c12 (stereo not drawn) [Example 232, 4-[4-(8-ethyl-7-fluoro-3-hydroxy-1-naphthyl)-5-fluoro-2-methyl-7-[(4-methylmorpholin-3-yl)methoxy]pyrazolo[4,3-f]quinazolin-9-yl]-6-methyl-1,4-oxazepan-6-ol]	10 to 100 nM	10 to 100 nM	–
